Legend:
[1] = tested on: Mycobacterium tuberculosis Erdman (autoluminescent); test: total FIC50 (Loewe) at 50% inhibition, three-drug combination (log2); higher = more antagonistic
Description: (§1)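 DiaMOND equipotent three-drug combination dose responses (10 doses, 1.5- or 2-fold spacing, centred on IC90) against autoluminescent M. tuberculosis Erdman in 8 in vitro models. Read-out is OD600, or luminescence for the intracellular and dormancy models, normalised to untreated wells. Hill-fit Einf, AUC25 and GRinf are potency metrics; FIC50 and FIC90 are total Loewe fractional inhibitory concentrations as log2 (negative = synergy).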

[2] = tested on: Mycobacterium tuberculosis Erdman (autoluminescent); test: Einf, fitted maximum growth inhibition of three-drug combination (fraction); higher = stronger maximal inhibition
Description: as §1

[3] = tested on: Mycobacterium tuberculosis Erdman (autoluminescent); test: AUC25, normalised area under dose response up to IC25 (three-drug combination) (fraction (0-1)); higher = more potent at low dose
Description: as §1

[4] = tested on: Mycobacterium tuberculosis Erdman (autoluminescent); test: total FIC90 (Loewe) at 90% inhibition, three-drug combination (log2); higher = more antagonistic
Description: as §1

[5] = tested on: Mycobacterium tuberculosis Erdman (autoluminescent); test: GRinf, maximum normalised growth rate inhibition (three-drug combination) (unitless (-1 to 1)); higher = less effect (negative = killing)
Description: as §1

COc1nc2ccc(Br)cc2cc1[C@@H](c1ccccc1)[C@@](O)(CCN(C)C)c1cccc2ccccc12 [bedaquiline] + O=[N+]([O-])c1cn2c(n1)OC[C@@H](OCc1ccc(OC(F)(F)F)cc1)C2 [pretomanid] + CO[C@H]1/C=C/O[C@@]2(C)Oc3c(C)c(O)c4c(O)c(c(/C=N/N5CCN(C6CCCC6)CC5)c(O)c4c3C2=O)NC(=O)/C(C)=C\C=C\[C@H](C)[C@H](O)[C@@H](C)[C@@H](O)[C@@H](C)[C@H](OC(C)=O)[C@@H]1C [rifapentine]
Details | AUC25, [3] | Einf, [2] | GRinf, [5] | total FIC50, [1] | total FIC90, [4]
in vitro model: acidic pH 5.7, time point: constant (~7 days, model-specific) | 0.116 | 0.943 | -0.512 | 0.516 | –
in vitro model: acidic pH 5.7, time point: terminal (~4-5 doublings, model-specific) | 0.0913 | 0.987 | -0.4 | 0.436 | 0.698
in vitro model: intracellular J774, time point: constant = terminal | – | 0.985 | -0.531 | – | 0.0139

Details | AUC25, [3] | Einf, [2] | GRinf, [5] | total FIC50, [1] | total FIC90, [4]
in vitro model: butyrate, time point: constant (~7 days, model-specific) | 0.088 | 0.933 | -0.0563 | 0.655 | 0.181
in vitro model: butyrate, time point: terminal (~4-5 doublings, model-specific) | 0.0789 | 0.971 | -0.0507 | 0.541 | 0.744
in vitro model: cholesterol 0.05 mM, time point: constant (~7 days, model-specific) | 0.106 | 0.751 | -0.236 | 0.454 | –
in vitro model: cholesterol 0.05 mM, time point: terminal (~4-5 doublings, model-specific) | 0.0678 | 0.929 | -0.207 | 0.994 | 0.888
in vitro model: cholesterol-high 0.2 mM, time point: constant (~7 days, model-specific) | 0.0733 | 0.918 | -0.21 | 1.12 | 1.36
in vitro model: cholesterol-high 0.2 mM, time point: terminal (~4-5 doublings, model-specific) | 0.0496 | 0.999 | -0.642 | 1.19 | 0.947
in vitro model: dormancy (butyrate + nitrate, low O2), time point: constant (~7 days, model-specific) | 0.0511 | 0.899 | 0.22 | 0.0544 | -0.43
in vitro model: dormancy (butyrate + nitrate, low O2), time point: terminal (~4-5 doublings, model-specific) | 0.032 | 0.983 | -0.177 | 0.0788 | -0.459
in vitro model: standard 7H9 glycerol, time point: constant = terminal | 0.072 | 0.922 | -0.0207 | -0.0622 | 0.308
in vitro model: valerate, time point: constant (~7 days, model-specific) | 0.0905 | 0.904 | -0.217 | 1.07 | –
in vitro model: valerate, time point: terminal (~4-5 doublings, model-specific) | 0.0466 | 0.947 | -0.0362 | 1.15 | 0.748

COc1nc2ccc(Br)cc2cc1[C@@H](c1ccccc1)[C@@](O)(CCN(C)C)c1cccc2ccccc12 [bedaquiline] + O=[N+]([O-])c1cn2c(n1)OC[C@@H](OCc1ccc(OC(F)(F)F)cc1)C2 [pretomanid] + CO[C@H]1/C=C/O[C@@]2(C)Oc3c(C)c(O)c4c(O)c(c(/C=N/N5CCN(C)CC5)c(O)c4c3C2=O)NC(=O)/C(C)=C\C=C\[C@H](C)[C@H](O)[C@@H](C)[C@@H](O)[C@@H](C)[C@H](OC(C)=O)[C@@H]1C [rifampicin]
Details | AUC25, [3] | Einf, [2] | GRinf, [5] | total FIC50, [1] | total FIC90, [4]
in vitro model: acidic pH 5.7, time point: constant (~7 days, model-specific) | 0.111 | 0.938 | -0.379 | 0.68 | –
in vitro model: acidic pH 5.7, time point: terminal (~4-5 doublings, model-specific) | 0.0826 | 0.993 | -0.38 | 0.724 | 0.613
in vitro model: intracellular J774, time point: constant = terminal | – | 0.978 | -0.416 | – | -0.222

Details | AUC25, [3] | Einf, [2] | GRinf, [5] | total FIC50, [1] | total FIC90, [4]
in vitro model: butyrate, time point: constant (~7 days, model-specific) | 0.106 | 0.931 | -0.0326 | 0.367 | 0.71
in vitro model: butyrate, time point: terminal (~4-5 doublings, model-specific) | 0.0986 | 0.977 | -0.041 | 0.237 | 0.69
in vitro model: cholesterol 0.05 mM, time point: constant (~7 days, model-specific) | 0.116 | 0.764 | -0.188 | 0.697 | –
in vitro model: cholesterol 0.05 mM, time point: terminal (~4-5 doublings, model-specific) | 0.0763 | 0.813 | 0.0382 | 0.812 | -0.454
in vitro model: cholesterol-high 0.2 mM, time point: constant (~7 days, model-specific) | 0.0584 | 0.921 | -0.229 | 1.22 | 1.66
in vitro model: cholesterol-high 0.2 mM, time point: terminal (~4-5 doublings, model-specific) | 0.0574 | 1 | -0.652 | 1.17 | 0.914
in vitro model: dormancy (butyrate + nitrate, low O2), time point: constant (~7 days, model-specific) | 0.0611 | 0.9 | 0.255 | 0.0572 | -0.559
in vitro model: dormancy (butyrate + nitrate, low O2), time point: terminal (~4-5 doublings, model-specific) | 0.0439 | 0.982 | -0.104 | 0.00851 | -0.259
in vitro model: standard 7H9 glycerol, time point: constant = terminal | 0.0794 | 0.937 | -0.1 | 0.14 | -0.371
in vitro model: valerate, time point: constant (~7 days, model-specific) | 0.103 | 0.897 | -0.11 | 1.04 | –
in vitro model: valerate, time point: terminal (~4-5 doublings, model-specific) | 0.0424 | 0.951 | -0.0825 | 1.09 | 0.566

COc1nc2ccc(Br)cc2cc1[C@@H](c1ccccc1)[C@@](O)(CCN(C)C)c1cccc2ccccc12 [bedaquiline] + O=[N+]([O-])c1cn2c(n1)OC[C@@H](OCc1ccc(OC(F)(F)F)cc1)C2 [pretomanid] + NC(=O)c1cnccn1 [pyrazinamide]
Details | AUC25, [3] | Einf, [2] | GRinf, [5] | total FIC50, [1] | total FIC90, [4]
in vitro model: acidic pH 5.7, time point: constant (~7 days, model-specific) | 0.0919 | 0.881 | -0.623 | 0.152 | -0.764
in vitro model: acidic pH 5.7, time point: terminal (~4-5 doublings, model-specific) | 0.0867 | 0.983 | -0.421 | 0.197 | 0.0646
in vitro model: intracellular J774, time point: constant = terminal | – | 0.972 | -0.386 | – | 0.176

Details | AUC25, [3] | Einf, [2] | GRinf, [5] | total FIC50, [1] | total FIC90, [4]
in vitro model: butyrate, time point: constant (~7 days, model-specific) | 0.119 | 0.946 | -0.193 | -0.0189 | 1.37
in vitro model: butyrate, time point: terminal (~4-5 doublings, model-specific) | 0.102 | 0.978 | -0.539 | 0.212 | 1.21
in vitro model: cholesterol 0.05 mM, time point: constant (~7 days, model-specific) | 0.115 | 0.748 | -0.231 | – | –
in vitro model: cholesterol 0.05 mM, time point: terminal (~4-5 doublings, model-specific) | 0.106 | 0.909 | -0.185 | 0.657 | –
in vitro model: cholesterol-high 0.2 mM, time point: constant (~7 days, model-specific) | 0.0759 | 0.934 | -0.252 | 0.548 | –
in vitro model: cholesterol-high 0.2 mM, time point: terminal (~4-5 doublings, model-specific) | 0.0678 | 0.998 | -0.58 | 0.646 | 0.318
in vitro model: dormancy (butyrate + nitrate, low O2), time point: constant (~7 days, model-specific) | 0.043 | 0.896 | 0.257 | -0.949 | -1.45
in vitro model: dormancy (butyrate + nitrate, low O2), time point: terminal (~4-5 doublings, model-specific) | 0.0578 | 0.983 | -0.0996 | -1.05 | -1.31
in vitro model: standard 7H9 glycerol, time point: constant = terminal | 0.0709 | 0.957 | -0.0903 | -0.132 | –
in vitro model: valerate, time point: constant (~7 days, model-specific) | 0.0952 | 0.866 | -0.0433 | 0.178 | –
in vitro model: valerate, time point: terminal (~4-5 doublings, model-specific) | 0.062 | 0.938 | -0.0146 | 0.143 | -0.0602

CC(C)/N=c1\cc2n(-c3ccc(Cl)cc3)c3ccccc3nc-2cc1Nc1ccc(Cl)cc1 [clofazimine] + CC(=O)NC[C@H]1CN(c2ccc(N3CCOCC3)c(F)c2)C(=O)O1 [linezolid] + CO[C@H]1/C=C/O[C@@]2(C)Oc3c(C)c(O)c4c(O)c(c(/C=N/N5CCN(C6CCCC6)CC5)c(O)c4c3C2=O)NC(=O)/C(C)=C\C=C\[C@H](C)[C@H](O)[C@@H](C)[C@@H](O)[C@@H](C)[C@H](OC(C)=O)[C@@H]1C [rifapentine]
Details | AUC25, [3] | Einf, [2] | GRinf, [5] | total FIC50, [1] | total FIC90, [4]
in vitro model: acidic pH 5.7, time point: constant (~7 days, model-specific) | 0.0854 | 0.874 | -0.12 | 0.564 | –
in vitro model: acidic pH 5.7, time point: terminal (~4-5 doublings, model-specific) | 0.0814 | 0.98 | -0.151 | 0.455 | 0.39
in vitro model: intracellular J774, time point: constant = terminal | – | 0.926 | -0.19 | – | -0.239

Details | AUC25, [3] | Einf, [2] | GRinf, [5] | total FIC50, [1] | total FIC90, [4]
in vitro model: butyrate, time point: constant (~7 days, model-specific) | 0.0929 | 0.918 | -0.00889 | 0.328 | 1.2
in vitro model: butyrate, time point: terminal (~4-5 doublings, model-specific) | 0.0457 | 0.943 | 0.0319 | 0.369 | -0.292
in vitro model: cholesterol 0.05 mM, time point: constant (~7 days, model-specific) | 0.126 | 0.731 | -0.0827 | -0.42 | –
in vitro model: cholesterol 0.05 mM, time point: terminal (~4-5 doublings, model-specific) | 0.136 | 0.942 | -0.212 | 0.236 | 0.563
in vitro model: cholesterol-high 0.2 mM, time point: constant (~7 days, model-specific) | 0.114 | 0.928 | -0.916 | 0.312 | 1.27
in vitro model: cholesterol-high 0.2 mM, time point: terminal (~4-5 doublings, model-specific) | 0.124 | 1 | -0.975 | 0.111 | 0.601
in vitro model: dormancy (butyrate + nitrate, low O2), time point: constant (~7 days, model-specific) | 0.0702 | 0.914 | 0.025 | 1.42 | 1.23
in vitro model: dormancy (butyrate + nitrate, low O2), time point: terminal (~4-5 doublings, model-specific) | 0.046 | 0.99 | -0.23 | 1.03 | 0.905
in vitro model: standard 7H9 glycerol, time point: constant = terminal | 0.105 | 0.945 | 0.00644 | 0.0429 | 0.805
in vitro model: valerate, time point: constant (~7 days, model-specific) | 0.113 | 0.883 | -0.112 | 0.974 | –
in vitro model: valerate, time point: terminal (~4-5 doublings, model-specific) | 0.0863 | 0.95 | -0.00893 | 0.608 | 1.24

— the supplement of paper PMC8617591
